Results on ten compounds are retold here after patent publication US20260226029A1, “1-(1-Oxo-1,2-Dihydrophthalazin-6-yl)Cycloalkyl-1-Carboxamide Derivatives as MTA-Cooperative Inhibitors of PRMT5” (BeOne Medicines I GmbH, priority 2023, published 2026).

In one assay the test system is HCT116-mock-RNA-KO. Kind of assay: Compounds cell killing in HCT116 isogenic pair (CellTiter-Glo, 6 days), mock-KO (MTAP wildtype) cells. Type of assay: cell-based. To be noted: Homo sapiens, HCT-116, 144 h, Cell Titer-Glo, 0-10 μM. An excerpt:
(§1) HCT116 cell line (ATCC, CCL-247) was isolated from the colon of an adult with colon cancer. It has a mutation in codon 13 of the ras proto-oncogene and can be used as a positive control for PCR assays of mutation in this codon. HCT116-MTAP-KO was knocked-out-MTAP-gene based HCT116, and a single clone was passed for this assay. HCT116-mock-RNA-KO was knocked-out-mock-gene based HCT116 with MTAP wildtype genotype. The base medium for HCT116 isogenic pair is RPMI 1640, HEPES (Gibco, 22400105). To make the complete growth medium, add the following components to the base medium: fetal bovine serum to a final concentration of 10% (Gibco, 10099-141C). The cell line was grown in a humidified 5% CO2 atmosphere at 37° C. and regularly tested for the presence of mycoplasma with MycoAlert™ PLUS Mycoplasma Detection Kit (Lonza, LT07-710).
(§2) • Seed HCT116-mock-RNA-KO (4E2/well) or HCT116-MTAP-KO (4E2/well) cells into a 96-well plate (Greiner: 655090), 100 µL/well. • Incubate at 37° C., 5% CO2, overnight. • Add 50 μL fresh growth-medium containing serial dilution of compounds for a final compound concentration of 0-10 μM to each well. • Incubate at 37° C., 5% CO2, 6 days. • The cell viability detected by Cell Titer-Glo (Promega, G7573). Add 70 μL of CellTiter-Glo® reagent in each well. • Incubate at room temperature for 10 minutes to stabilize luminescent signal. • Analyze with Microplate Reader (TECAN, SPARK) and fit IC50 using Prism® 9.
(In general: In ATP-based viability assays light output follows the ATP content of the culture.)

A further assay deals with HCT116-MTAP-KO. Kind of assay: Compounds cell killing in HCT116 isogenic pair (CellTiter-Glo, 6 days), MTAP-KO cells. In kind it is cell-based. Conditions: Homo sapiens, HCT-116, 144 h, Cell Titer-Glo, 0-10 μM.
From the text: as §1, §2

For the compound `NCc1n[nH]c(=O)c2ccc(C3(C(=O)N(Cc4ccc(C(F)(F)F)cn4)C4CCCc5cccnc54)CCC3)cc12` (centres unmarked) [Example 35, 1-(4-(aminomethyl)-1-oxo-1,2-dihydrophthalazin-6-yl)-N-(5,6,7,8-tetrahydroquinolin-8-yl)-N-((5-(trifluoromethyl)pyridin-2-yl)methyl)cyclobutane-1-carboxamide], the values for the half-inhibitory concentration (IC50) with HCT116-mock-RNA-KO and in the assay with HCT116-MTAP-KO were more than 10000 nM and 924 nM, respectively.
Taken in the same sequence, the figures for `NCc1n[nH]c(=O)c2ccc(C3(C(=O)N(Cc4ccc(-c5c(Cl)cccc5Cl)cn4)[C@H]4CCCc5cccnc54)CC3)cc12` [Example 4B, (S)-1-(4-(aminomethyl)-1-oxo-1,2-dihydrophthalazin-6-yl)-N-((5-(2,6-dichlorophenyl)pyridin-2-yl)methyl)-N-(5,6,7,8-tetrahydroquinolin-8-yl)cyclopropane-1-carboxamide] were 5910 nM and 1540 nM.
Taken in the same sequence, the figures for `Cc1n[nH]c(C)c1-c1ccc(CN(C(=O)C2(c3ccc4c(=O)[nH]nc(CN)c4c3)CC2)C2CCCc3cccnc32)nc1` (centres unmarked) [Example 23, 1-(4-(aminomethyl)-1-oxo-1,2-dihydrophthalazin-6-yl)-N-((5-(3,5-dimethyl-1H-pyrazol-4-yl)pyridin-2-yl)methyl)-N-(5,6,7,8-tetrahydroquinolin-8-yl)cyclopropane-1-carboxamide] were more than 10000 nM and 3990 nM.
On to `NCc1n[nH]c(=O)c2ccc(C3(C(=O)N(Cc4ccc(Oc5c(F)cccc5F)cn4)[C@@H]4CCCc5cccnc54)CC3)cc12` [Example 34, (R)-1-(4-(aminomethyl)-1-oxo-1,2-dihydrophthalazin-6-yl)-N-((5-(2,6-difluorophenoxy)pyridin-2-yl)methyl)-N-(5,6,7,8-tetrahydroquinolin-8-yl)cyclopropane-1-carboxamide], for which the half-inhibitory concentration (IC50) was determined as 3650 nM in the assay on HCT116-mock-RNA-KO and 66 nM in the assay with HCT116-MTAP-KO.
For the compound `NCc1n[nH]c(=O)c2ccc(C3(C(=O)N(Cc4ncc(Br)c5ccccc45)C4CCCc5cccnc54)CC3)cc12` (centres unmarked) [Example 15, 1-(4-(aminomethyl)-1-oxo-1,2-dihydrophthalazin-6-yl)-N-((4-bromoisoquinolin-1-yl)methyl)-N-(5,6,7,8-tetrahydroquinolin-8-yl)cyclopropane-1-carboxamide], the IC50 in the assay on HCT116-mock-RNA-KO was 5080 nM; with HCT116-MTAP-KO it was 942 nM.
Taken in the same sequence, the figures for `NCc1n[nH]c(=O)c2ccc(C3(C(=O)N(Cc4ccc(C(F)(F)F)cn4)[C@H]4CCCc5cccnc54)CC3)cc12` [Example 2B, (S)-1-(4-(aminomethyl)-1-oxo-1,2-dihydrophthalazin-6-yl)-N-(5,6,7,8-tetrahydroquinolin-8-yl)-N-((5-(trifluoromethyl)pyridin-2-yl)methyl)cyclopropane-1-carboxamide] were more than 10000 nM and more than 10000 nM.
With `N#Cc1cccc(Cl)c1-c1ccc(CN(C(=O)C2(c3ccc4c(=O)[nH]nc(CN)c4c3)CC2)C2CCCc3cccnc32)nc1` (centres unmarked) [Example 13, 1-(4-(aminomethyl)-1-oxo-1,2-dihydrophthalazin-6-yl)-N-((5-(2-chloro-6-cyanophenyl)pyridin-2-yl)methyl)-N-(5,6,7,8-tetrahydroquinolin-8-yl)cyclopropane-1-carboxamide], the 50% inhibitory concentration (IC50) was 3950 nM with HCT116-mock-RNA-KO and 62 nM with HCT116-MTAP-KO.
In the case of `Cn1nccc1-c1ccc(CN(C(=O)C2(c3ccc4c(=O)[nH]nc(CN)c4c3)CC2)C2CCCc3cccnc32)nc1` (centres unmarked) [Example 16, 1-(4-(aminomethyl)-1-oxo-1,2-dihydrophthalazin-6-yl)-N-((5-(1-methyl-1H-pyrazol-5-yl)pyridin-2-yl)methyl)-N-(5,6,7,8-tetrahydroquinolin-8-yl)cyclopropane-1-carboxamide], the IC50 with HCT116-mock-RNA-KO was more than 10000 nM; in the assay with HCT116-MTAP-KO it was 699 nM.
Taken in the same sequence, the figures for `NCc1n[nH]c(=O)c2ccc(C3(C(=O)N(Cc4ccc(Oc5ccccc5)cn4)C4CCCc5cccnc54)CC3)cc12` (centres unmarked) [Example 20, 1-(4-(aminomethyl)-1-oxo-1,2-dihydrophthalazin-6-yl)-N-((5-phenoxypyridin-2-yl)methyl)-N-(5,6,7,8-tetrahydroquinolin-8-yl)cyclopropane-1-carboxamide] were more than 1000 nM and 215 nM.
Regarding `NCc1n[nH]c(=O)c2ccc(C3(C(=O)N(Cc4ccc(C(F)(F)F)cn4)C4CCCc5c(C6CC6)ccnc54)CC3)cc12` (centres unmarked) [Example 32, 1-(4-(aminomethyl)-1-oxo-1,2-dihydrophthalazin-6-yl)-N-(4-cyclopropyl-5,6,7,8-tetrahydroquinolin-8-yl)-N-((5-(trifluoromethyl)pyridin-2-yl)methyl)cyclopropane-1-carboxamide], the IC50 with HCT116-mock-RNA-KO amounted to 7330 nM; in the assay on HCT116-MTAP-KO, 140 nM.

For orientation: IC50 means the point on the concentration scale where inhibition reaches its midpoint. Higher therefore signals weaker potency in that assay.
